Key:
[1] = Solubility in water and organic solvents; assay type: physicochemical
Excerpt: Paracetamol is soluble in Methanol, Ethanol, DMF, Ethylene chlorine, Benzyl ethanol and other organic solvents, but none of them can be used alone or in a mixture, because of their toxicity.

liver cytochrome P-450 = conditions: in vivo; cited from earlier work
[2] = cited from earlier work
[3] = cited from earlier work; remark: listed apart in the source

solubility in organic solvents ([1]; Methanol, Ethanol, DMF, Ethylene chlorine, Benzyl ethanol and other organic solvents): soluble
solubility in water ([1]; water): practically insoluble
Structure (SMILES): CC(=O)Nc1ccc(O)cc1 [Paracetamol]
part oxidized by the liver cytochrome P-450 to a toxic intermediate metabolite (liver cytochrome P-450): approx. 3%
excreted through urines as conjugated derivative of glucouronic acid ([2]; glucouronic acid conjugate): 60%
excreted through urines as conjugated derivative of sulfuric acid ([2]; sulfuric acid conjugate): 35%
excreted through urines as conjugated derivatives ([2]; total of sulfuric and glucouronic acid conjugates): 95%
excreted unchangeable ([2]; unchanged drug): 2%
absorption when intramuscularly administered ([3]; intramuscular, blood level similar to that after oral administration): well absorbed
loss of the drug observed after oral administration ([3]; oral administration, does not exist with injectable Paracetamol): 20%
